Where “and” joins values, the source holds several entries; their conditions need not be identical. Identical values can stand only once. Like-named read-outs stand apart in the source and are kept apart here.
What was measured:
A. terreus = test: Broth microdilution antifungal susceptibility (Example 13); format: cell-based; details: Aspergillus terreus, A. terreus MMX 8229
A. niger = test: as above; format: cell-based; details: Aspergillus niger, ATCC29508; read-out: MIC0 48 hr
Enterococcus spp. = test: Broth microdilution MIC (Example 11); details: read-out: MIC values
Candida glabrata = test: Broth microdilution antifungal susceptibility (Example 13); format: cell-based; details: Nakaseomyces glabratus
Achromobacter spp. = test: MIC against CF bacterial strains (Example 5)
[1] = Particle size of BisEDT microparticles (Nanosizer/Zetasizer); format: physicochemical; details: resuspended in 2% Pluronic F-68, sonicated
Protocol: The dried particulate matter was characterized to assess the particle size properties. Briefly, microparticles were resuspended in 2% Pluronic® F-68 (BASF, Mt. Olive, N.J.) and the suspension was sonicated for 10 minutes in a water bath sonicator at standard setting prior to analysis using a Nanosizer/Zetasizer Nano-S particle analyzer (model ZEN1600 (without zeta-potential measuring capacity), Malvern Instruments, Worcestershire, UK) according to the manufacturer's recommendations.

[2] = Face mask inhalation in beagle dogs: clinical chemistry; format: in vivo; details: sampling times not given
Protocol: Once adequately conditioned to the restraint device and face-masks, the animals are individually exposed to the test article aerosols. Animals receive a single face-mask inhalation exposure in a ramp study design to test article aerosols for up to 60 min. Animal observations during and post exposure determine the tolerance of inhaled BisEDT aerosols.
Group 1 (vehicle) are exposed to a vehicle atmosphere for 30 minutes. Group 2 (50 μg/kg) are exposed to BisEDT for 30 minutes. Target concentrations and exposure durations for Groups 3-5 are based on the presence of any toxicity via clinical observations or gross necropsy findings. In each of Groups 3-5, if no adverse clinical signs of toxicity are observed, the next groups' exposure will be conducted at a higher target dose. If adverse clinical signs of toxicity are observed, the next groups' exposure will be conducted at a lower target dose. This approach is repeated for all BisEDT doses. The final documented exposure duration is the maximum tolerated dose or the maximum feasible dose.
The aerosol generation system couples a commercially available compressed air jet nebulizer to a chamber that allows the aerosols to transition to the animals. Exposure is by face-mask inhalation per the study design above. […] Formulation concentration and exposure duration are modulated to achieve target doses if necessary.
Blood Collections and Bioanalytical Analysis: Blood are collected for pharmacokinetic (PK) analysis prior to exposure, then at 4 hr (±5 min) post exposure, and again on Day 1, Day 2, Day 7 (pre- and 4 hr (±5 min)-post exposure), Day 8, Day 9, Day 10, Day 11, Day 12, Day 13, and Day 14. A total of 0.25 mL is collected at each timepoint. No PK blood is collected from the vehicle control (Group 1) animals; only animals exposed to BisEDT have blood collected for PK analysis. Collected samples are flash frozen without processing for shipment to Medpace for bioanalytical analysis. Additional blood is collected from all animals in all groups for hematology (1 mL) and clinical chemistry (1 mL) at baseline, Day 7 (pre-exposure), and again at euthanasia. Blood (2-2 mL) is collected from all animals at necropsy for coagulation analysis (d-Dimer, fibrinogen, PT, and PTT).
For clinical chemistry analyses, whole blood (1 mL) is placed into serum separator or clot tube and […] by centrifugation at a minimum of 1300 g at 2 to 8° C. for 10 (±1) min. Plasma samples are stored at −70 to −90° C. until analysis.
Clinical chemistry samples are analyzed on a Hitachi Modular Analytics Clinical Chemistry System (Roche Diagnostics, Indianapolis, Ind.).

Pseudomonas aeruginosa = details: P. aeruginosa MMX 103 (ATCC 27853); CLSI QC ranges shown in parenthesis; cited from earlier work
[3] = Grp 1 (1001 Male, 1002 Female, Avg), 3 lines per subject
[4] = Grp 2 (2001 Male, 2002 Female, Avg), 3 lines per subject
[5] = Grp 3 (3001 Male, 3002 Female, Avg), 3 lines per subject
[6] = Grp 4 (4001 Male, 4004 Female, Avg; 4002 Female, 4003 Male), 2-3 lines per subject

CC(S)C(C)S.[Bi] (stereo not drawn) [BisBDT, bismuth-2,3-butanedithiol]
MIC (A. terreus; 24 hr, read-out: MIC0 24 hr): 0.25 µg/mL | MIC (A. terreus; 48 hr, read-out: MIC0 48 hr): 1 µg/mL | MIC (A. niger): 2 µg/mL | MIC (Enterococcus spp.): 0.25 to 1 µg/mL | MIC (Candida glabrata; ATCC90030, read-out: MIC0 (complete inhibition), isolate ATCC 90030 (Susceptible)): 1 µg/mL | MIC (Candida glabrata; ATCC90030, read-out: MIC2 (50% inhibition), isolate ATCC 90030 (Susceptible)): 0.5 µg/mL | MIC (Candida glabrata; read-out: MIC0 (complete inhibition), isolate ATCC MYA-2950 (Susceptible)): 1 µg/mL | MIC (Candida glabrata; read-out: MIC0 (complete inhibition), isolate MMX 7087 (Susceptible)): 1 µg/mL | MIC (Candida glabrata; read-out: MIC0 (complete inhibition), isolate MMX 7093 (FLU-R)): 2 µg/mL | MIC (Candida glabrata; read-out: MIC0 (complete inhibition), isolate MMX 7101 (FLU-R)): 1 µg/mL | MIC (Candida glabrata; read-out: MIC0 (complete inhibition), isolate MMX 7103 (CASP-R, MICA-R)): 1 µg/mL | MIC (Candida glabrata; read-out: MIC0 (complete inhibition), isolate MMX 7111 (Susceptible)): 1 µg/mL | MIC (Candida glabrata; read-out: MIC0 (complete inhibition), isolate MMX 7285 (CASP-R, MICA-R)): 0.5 µg/mL | MIC (Candida glabrata; read-out: MIC0 (complete inhibition), isolate MMX 7307 (CASP-R, MICA-R, FLU-R)): 1 µg/mL | MIC (Candida glabrata; read-out: MIC0 (complete inhibition), isolate MMX 7549 (Susceptible)): 1 µg/mL | MIC (Candida glabrata; read-out: MIC2 (50% inhibition), isolate ATCC MYA-2950 (Susceptible)): 0.5 µg/mL | MIC (Candida glabrata; read-out: MIC2 (50% inhibition), isolate MMX 7087 (Susceptible)): 0.5 µg/mL | MIC (Candida glabrata; read-out: MIC2 (50% inhibition), isolate MMX 7093 (FLU-R)): 1 µg/mL | MIC (Candida glabrata; read-out: MIC2 (50% inhibition), isolate MMX 7101 (FLU-R)): 0.5 µg/mL | MIC (Candida glabrata; read-out: MIC2 (50% inhibition), isolate MMX 7103 (CASP-R, MICA-R)): 0.5 µg/mL | MIC (Candida glabrata; read-out: MIC2 (50% inhibition), isolate MMX 7111 (Susceptible)): 0.5 µg/mL | MIC (Candida glabrata; read-out: MIC2 (50% inhibition), isolate MMX 7285 (CASP-R, MICA-R)): 0.25 µg/mL | MIC (Candida glabrata; read-out: MIC2 (50% inhibition), isolate MMX 7307 (CASP-R, MICA-R, FLU-R)): 0.5 µg/mL | MIC (Candida glabrata; read-out: MIC2 (50% inhibition), isolate MMX 7549 (Susceptible)): 0.5 µg/mL | MIC (Achromobacter spp.): 0.5 µg/mL | MIC (Achromobacter spp.; Achromobacter): 1 µg/mL

C1C[S][Bi]([S]CC[S][Bi]2[S]CC[S]2)[S]1 [BisEDT, bismuth-1,2-ethanedithiol]
peak volumetric mean diameter (VMD) of microparticles [1]: about 1.3 microns | AGR [2, 3]: 2.6 and 1.9 (2×) and 2.1 (2×) | ALB [2, 3]: 3.7 g/dL | ALPK [2, 3]: 125 IU/L and 120 IU/L and 248 IU/L and 243 IU/L and 235 IU/L and 91 IU/L | ALT [2, 3]: 26 IU/L and 27 IU/L and 29 IU/L and 21 IU/L | AST [2, 3]: 33 IU/L (2×) and 29 IU/L (2×) and 27 IU/L | BUN [2, 3]: 13 mg/dL (2×) and 17 mg/dL | CA2 [2, 3]: 10.3 mg/dL | CHOL [2, 3]: 129 mg/dL and 116 mg/dL and 132 mg/dL and 130 mg/dL and 107 mg/dL | CREA [2, 3]: 0.5 mg/dL | GLOB [2, 3]: 1.4 g/dL and 1.5 g/dL and 1.8 g/dL | GLUC [2, 3]: 88 mg/dL and 89 mg/dL and 90 mg/dL and 78 mg/dL and 92 mg/dL (2×) | K [2, 3]: 4.5 mmo/L and 4.7 mmo/L (2×) and 4.2 mmo/L and 5.1 mmo/L | Na [2, 3]: 150 mmo/L | TP [2, 3]: 5.5 g/dL and 4.9 g/dL | TRIG [2, 3]: 32 mg/dL and 29 mg/dL and 53 mg/dL and 39 mg/dL and 38 mg/dL and 37 mg/dL | AGR [2, 4]: 1.9 and 2.0 and 1.7 and 2.3 (2×) | ALB [2, 4]: 3.4 g/dL and 3.7 g/dL | ALT [2, 4]: 22 IU/L (3×) and 18 IU/L and 29 IU/L and 27 IU/L | AST [2, 4]: 48 IU/L and 36 IU/L (2×) and 35 IU/L and 41 IU/L and 38 IU/L | BUN [2, 4]: 12 mg/dL and 16 mg/dL and 14 mg/dL (2×) | CHOL [2, 4]: 114 mg/dL | Cl [2, 4]: 108 mmo/L and 110 mmo/L and 114 mmo/L | GLOB [2, 4]: 2.0 g/dL and 1.9 g/dL and 1.6 g/dL (2×) | GLUC [2, 4]: 91 mg/dL and 97 mg/dL and 95 mg/dL and 89 mg/dL | K [2, 4]: 4.5 mmo/L and 4.9 mmo/L and 5.0 mmo/L and 5.2 mmo/L and 4.6 mmo/L | TP [2, 4]: 5.0 g/dL and 5.5 g/dL and 5.3 g/dL | TRIG [2, 4]: 66 mg/dL and 80 mg/dL and 63 mg/dL and 38 mg/dL and 39 mg/dL and 31 mg/dL | AGR [2, 5]: 2.0 (2×) and 2.1 and 2.3 and 1.8 and 2.6 | ALB [2, 5]: 3.2 g/dL and 3.7 g/dL | ALPK [2, 5]: 90 IU/L | ALT [2, 5]: 26 IU/L and 24 IU/L and 28 IU/L and 20 IU/L (2×) | AST [2, 5]: 33 IU/L and 28 IU/L | BUN [2, 5]: 13 mg/dL and 17 mg/dL and 33 mg/dL and 11 mg/dL and 25 mg/dL | CHOL [2, 5]: 100 mg/dL | CREA [2, 5]: 0.7 mg/dL and 0.5 mg/dL and 0.9 mg/dL | Cl [2, 5]: 110 mmo/L | GLOB [2, 5]: 1.7 g/dL and 2.0 g/dL and 1.4 g/dL | GLUC [2, 5]: 100 mg/dL and 88 mg/dL and 51 mg/dL and 112 mg/dL and 90 mg/dL and 65 mg/dL | K [2, 5]: 4.7 mmo/L and 5.8 mmo/L and 5.5 mmo/L and 5.3 mmo/L | TP [2, 5]: 4.8 g/dL and 5.0 g/dL (2×) and 5.5 g/dL | TRIG [2, 5]: 26 mg/dL and 34 mg/dL (2×) and 52 mg/dL and 43 mg/dL and 58 mg/dL | AGR [2, 6]: 2.3 and 2.0 and 1.7 (2×) and 1.6 | ALB [2, 6]: 3.6 g/dL and 3.2 g/dL | ALT [2, 6]: 27 IU/L (2×) and 25 IU/L and 24 IU/L and 20 IU/L and 21 IU/L and 40 IU/L and 23 IU/L | AST [2, 6]: 32 IU/L (2×) and 34 IU/L and 38 IU/L and 31 IU/L and 35 IU/L and 30 IU/L | BUN [2, 6]: 11 mg/dL (2×) and 16 mg/dL and 15 mg/dL | CHOL [2, 6]: 147 mg/dL and 125 mg/dL and 124 mg/dL and 182 mg/dL and 169 mg/dL and 176 mg/dL | CREA [2, 6]: 0.5 mg/dL | GLOB [2, 6]: 1.6 g/dL and 2.1 g/dL (2×) and 2.0 g/dL | GLUC [2, 6]: 82 mg/dL and 86 mg/dL and 70 mg/dL and 96 mg/dL and 79 mg/dL and 109 mg/dL and 81 mg/dL | K [2, 6]: 4.8 mmo/L and 4.6 mmo/L and 5.1 mmo/L and 4.3 mmo/L and 5.3 mmo/L (2×) and 4.9 mmo/L (2×) | TP [2, 6]: 4.9 g/dL and 5.1 g/dL and 5.6 g/dL and 5.5 g/dL and 5.4 g/dL (2×) | TRIG [2, 6]: 49 mg/dL (2×) and 46 mg/dL and 40 mg/dL and 53 mg/dL (2×) and 44 mg/dL and 34 mg/dL and 41 mg/dL and 55 mg/dL

C[C@@H](O)[C@H]1C(=O)N2C(C(=O)O)=C(S[C@@H]3CN[C@H](C(=O)N(C)C)C3)[C@H](C)[C@H]12 [Meropenem, reference compound]
CLSI QC range of MIC (Pseudomonas aeruginosa): (0.25-1) μg/mL

Reference: US11464749B2, “Bismuth-thiol compositions and methods of use” (Microbion Corporation, priority 2018, dated 2022)
